We go through 3 compounds from PMC3973950, “Synthesis of 5-arylidine amino-1,3,4-thiadiazol-2-[(N-substituted benzyol)]sulphonamides endowed with potent antioxidants and anticancer activity induces growth inhibition in HEK293, BT474 and NCI-H226 cells” (Medicinal Chemistry Research, 2013).

The nature of data set [1]: In vitro cytotoxicity by MTT assay, HEK 293. It is filed as cell-based, human. The note with it: human, HEK 293 cells, read-out: % cytotoxicity (100 − % cell survival) of HEK 293 cell line. As for the experimental part:
(§1) The cancer cell line cultures of HEK 293 ([…]), BT474 (breast cancer cell line) and NCI-H226 (lung cancer) were obtained from Pasteur Institute of India, Coonoor, India, and were cultured in RPMI-1640 and 10 % heat-[…] New born calf serum with antibiotics [penicillin ([…]), streptomycin (100 μg/mL) and amphotericin B (25 μg/mL)]. The cells were maintained at 37 °C in a humidified atmosphere with 5 % CO2 and were subcultured twice a week.
(§2) The monolayer cell culture (100 μL) was trypsinized, and the cell count was adjusted to […] using medium containing 10 % new born calf serum. To each well of the 96-well microtitre plate, the diluted cell suspension (approximately 10,000 cells) (0.1 mL) was added and kept for 24 h in incubator at 37 °C in 5 % CO2 atmosphere for cell monolayer formation. After 24 h, when a partial monolayer was formed at the bottom of the well, the supernatant was flicked off, the monolayer was washed once, and different drugs, i.e. synthesized compounds (100 μL), were added to the cells in microtitre plates. The plates were then incubated at 37 °C for 3 days in 5 % CO2 atmosphere, and microscopic examination was carried out and observations recorded every 24 h. After 72 h, the sample solution in the wells was flicked off; MTT dye ([…]) was added to each well; plates were gently shaken and incubated for 4 h at 37 °C in 5 % CO2 incubator. The supernatant was removed and propanol (50 μL) was added; the plates were gently shaken to solubilize the formed formazan. The absorbance was measured using a microplate reader at a wavelength of 490 nm (Edmondson et al., [1988]; Prasad et al., [2005]; Chiruvella et al., [2008]; Chang et al., [2007]).
In general terms: Formazan colour is commonly taken as a measure of viable cells.

Data set [2] relates to NCI-H226 (lung cancer cell line). Kind of data set: In vitro cytotoxicity by MTT assay, NCI-H226. It counts as cell-based. Conditions: Homo sapiens, 72 h, read-out: % Cytotoxicity (100 − % cell survival) of NCI-H226 cell line; for cytotoxicity at 0.005 µM: NCI-H226, 0.005 μM; for cytotoxicity at 0.045 µM: NCI-H226, 0.045 μM; for cytotoxicity at 0.13 µM: NCI-H226, 0.13 μM; for cytotoxicity at 0.41 µM: NCI-H226, 0.41 μM; for cytotoxicity at 1.23 µM: NCI-H226, 1.23 μM; for cytotoxicity at 3.7 µM: NCI-H226, 3.7 μM; for cytotoxicity at 11.11 µM: NCI-H226, 11.11 μM; for cytotoxicity at 33.33 µM: NCI-H226, 33.33 μM; for cytotoxicity at 100 µM: NCI-H226, 100 μM. As for the experimental part: as §1, §2

Data set [3] in a line: In vitro cytotoxicity by MTT assay, NCI-H226. It is filed as cell-based. Conditions: human, NCI-H226 lung cancer cells, 0.015 μM, read-out: % Cytotoxicity (100 − % cell survival) of NCI-H226 cell line. The procedure:
as §1, §2

The subject of data set [4] is BT474 (breast cancer cell line). The data set can be described thus: In vitro cytotoxicity by MTT assay, BT474. It is filed as cell-based. The note with it: Homo sapiens, 72 h, read-out: % cytotoxicity (100 − % cell survival) of BT474 cell line; for cytotoxicity at 0.005 µM: BT-474, 0.005 μM; for cytotoxicity at 0.015 µM: BT-474, 0.015 μM; for cytotoxicity at 0.045 µM: BT-474, 0.045 μM; for cytotoxicity at 0.13 µM: BT-474, 0.13 μM; for cytotoxicity at 0.41 µM: BT-474, 0.41 μM; for cytotoxicity at 1.23 µM: BT-474, 1.23 μM; for cytotoxicity at 3.7 µM: BT-474, 3.7 μM; for cytotoxicity at 11.11 µM: BT-474, 11.11 μM; for cytotoxicity at 33.33 µM: BT-474, 33.33 μM; for cytotoxicity at 100 µM: BT-474, 100 μM. As for the experimental part:
as §1, §2

Data set [5] deals with root meristem cells of Allium cepa. Kind of data set: In vitro antimitotic activity and cytogenetic analysis, Allium cepa meristem root model. Conditions: compounds 1 mg/mL, PC (EMS) 2 × 10^−2 M. It counts as cell-based. As for the experimental part: Small bulbs (1.5–2.0 cm in diameter) of the common onion, A. cepa (2n = 16), were purchased from vendor at a local market. Prior to initiating the test, the outer scales of the bulbs and the dry bottom plate were removed without destroying the root primordia. The roots of A. cepa were grown in distilled water in Erlenmeyer flasks (200 mL capacity) under laboratory conditions (dark 24 °C). For each synthesized compound sample, after reaching a length of 3 cm (±0.5 cm), a series of six bulbs were placed in distilled water (pH 7.3) for 48 h and then onion roots were treated with the synthesized compound at 1 mg/mL concentrations of each tested compound. The test tubes were kept in an incubator at 22 ± 1 °C, and the test samples were changed daily at the same time. Several of the newly formed root tips were then cut from each bulb and examined for any visible morphological abnormalities. The bulbs with satisfactory root lengths (2–2.5 cm) were used in the study, while those with exceptionally long or short roots were discarded (on average 2–3 bulbs). Therefore, individual sets of five bulbs were used for each extract sample.
Distilled water (pH 7.3) was used as a negative control, and EMS (2 × 10^−2 M) used as a positive control mutagen (Fiskesjo, [1993], [1997]). After 24 h of exposure, several root tips were removed from the bulbs, fixed in 3:1 (v/v) ethanol (90 %)/glacial acetic acid (45 %) and stored overnight at 4 °C. The next day, they were placed in 70 % (v/v) aqueous alcohol and refrigerated until used. Allium roots were softened by digesting with HCl and rinsed the roots in water. After removing the water from the third rinse, the roots were covered with the orcein acetate stain. The roots were incubated in the stain for 12 min. During this time, the very tip of the root begins to turn red as the DNA stains the numerous small actively dividing cells at the tip. A root was transferred to the centre of a clean microscope slide, and a drop of water was added. Using a razor blade most of the unstained part of the root was cut off and discarded. The root tip was covered with a cover slip and then carefully pushed down on the cover slide with the wooden end of a dissecting probe. […] The root tip should spread out to a diameter about 0.5–1 cm. Five slides were prepared per bulb.
The following parameters were used for the determination of cytotoxicity and genotoxicity: • (i) the mitotic index (MI) was calculated as the ratio between the number of mitotic cells and the total number of cells scored and expressed as percentage using following formula as per standard procedures. Mitoticindex=Numberofdividingcells/Totalnumberofcells×100 • (ii) Chromatin aberrations (stickiness, breaks and polar deviation) were used as end points for the determination of cytogenetic effects, and micronuclei (MNC) were scored in interphase cells per 1,000 cells (‰ MNC) (Freshney, [2000]). • (iii) The most frequent abnormalities are shown in microphotographs. After 72 h of exposure to the test samples, the root lengths were measured and used as an index of general toxicity. The results for mitotic index and root length are expressed as percentage of the negative and positive controls. Visible morphological modifications, such as changes in root consistency and colour as well as the presence of swelling (c-tumours), hooks or twists in the roots, were also observed.

For `Nc1nnc(S(=O)(=O)NC(=O)c2ccccc2N)s1` [Compound 4b], in data set [1], the cytotoxicity at 72 h, 0.005 µM is 41.5%; the cytotoxicity at 72 h, 0.015 µM came out at 47%; the cytotoxicity at 72 h, 0.045 µM turned out to be 50.4%; the cytotoxicity at 72 h, 0.13 µM worked out at 53.6%. In data set [1], the cytotoxicity at 72 h, 0.41 µM worked out at 57.6%; the cytotoxicity at 72 h, 1.23 µM stood at 58.1%; the cytotoxicity at 72 h, 3.7 µM was found to be 59.7%; the cytotoxicity at 72 h, 11.11 µM amounted to 62.3%. Also, in data set [1], the cytotoxicity at 72 h, 33.33 µM stood at 63.1% and the cytotoxicity at 72 h, 100 µM stood at 65.4%. In addition, in data set [2], the cytotoxicity at 0.005 µM is 32.1%, the cytotoxicity at 0.045 µM came out at 33.5%, the cytotoxicity at 0.13 µM amounted to 34% and the cytotoxicity at 0.41 µM worked out at 34.7%. In data set [2], the cytotoxicity at 1.23 µM is 35.1%, the cytotoxicity at 3.7 µM was 36%, the cytotoxicity at 11.11 µM is 36.3% and the cytotoxicity at 33.33 µM is 37.2%. The cytotoxicity at 100 µM in data set [2] came out at 39.5%. In data set [3], the cytotoxicity at 72 h, 0.015 µM is 32.9%. In data set [4], the cytotoxicity at 0.005 µM was found to be 16.2%, the cytotoxicity at 0.015 µM was 16.6%, the cytotoxicity at 0.045 µM was found to be 17.4% and the cytotoxicity at 0.13 µM stood at 18%. For the same compound, in data set [4], the cytotoxicity at 0.41 µM came out at 18.1%, the cytotoxicity at 1.23 µM is 19.9%, the cytotoxicity at 3.7 µM was found to be 20.5% and the cytotoxicity at 11.11 µM is 22.2%. In data set [4], the cytotoxicity at 33.33 µM was found to be 23.3% and the cytotoxicity at 100 µM amounted to 26.7%.
Consider `Nc1ccc(C(=O)NS(=O)(=O)c2nnc(N)s2)cc1` [Compound 4c], for which, in data set [1], the cytotoxicity at 72 h, 0.005 µM is 36.3%; the cytotoxicity at 72 h, 0.015 µM is 37.9%; the cytotoxicity at 72 h, 0.045 µM stood at 38.2%; the cytotoxicity at 72 h, 0.13 µM is 39.1%. Besides, in data set [1], the cytotoxicity at 72 h, 0.41 µM is 39.9%; the cytotoxicity at 72 h, 1.23 µM amounted to 40.7%; the cytotoxicity at 72 h, 3.7 µM is 42.1%; the cytotoxicity at 72 h, 11.11 µM worked out at 46.5%. Besides, in data set [1], the cytotoxicity at 72 h, 33.33 µM came out at 47.8% and the cytotoxicity at 72 h, 100 µM was 49.1%. In addition, in data set [2], the cytotoxicity at 0.005 µM is 37.6%, the cytotoxicity at 0.045 µM came out at 38.9%, the cytotoxicity at 0.13 µM is 39.3% and the cytotoxicity at 0.41 µM is 42.2%. For the same compound, in data set [2], the cytotoxicity at 1.23 µM was found to be 45.4%, the cytotoxicity at 3.7 µM came out at 47.2%, the cytotoxicity at 11.11 µM was found to be 49.1% and the cytotoxicity at 33.33 µM is 51.2%. In addition, in data set [2], the cytotoxicity at 100 µM was 54.2%. The cytotoxicity at 72 h, 0.015 µM in data set [3] is 38.2%. Also, in data set [4], the cytotoxicity at 0.005 µM was found to be 30.6%, the cytotoxicity at 0.015 µM was 32.1%, the cytotoxicity at 0.045 µM amounted to 34.2% and the cytotoxicity at 0.13 µM amounted to 35.5%. In addition, in data set [4], the cytotoxicity at 0.41 µM turned out to be 36.3%, the cytotoxicity at 1.23 µM was found to be 37.6%, the cytotoxicity at 3.7 µM was 38.8% and the cytotoxicity at 11.11 µM is 39.4%. In addition, in data set [4], the cytotoxicity at 33.33 µM turned out to be 40.3% and the cytotoxicity at 100 µM is 41.4%.
As to `CCOS(C)(=O)=O` [PC, Ethyl methanesulphonate, reference compound], in data set [5], the “Aberrant cells (%) ± SEM” value was determined as 43.20 ± 7.10%, the “MNC (‰) ± SEM (micronuclei per 1,000 cells)” value was 0.59 ± 0.09 ‰, the “Polar deviations (%) ± SEM” value was 12.36 ± 3.36% and the “Stickiness (%) ± SEM” value was determined as 36.31 ± 9.84%. Besides, the “MI (%) ± SEM (mitotic index)” value in data set [5] (lower MI = higher activity, negative control 6.22) is recorded as 1.86 ± 0.23%.
